In US11834566B2, “High-carbon recovered paper and plastic materials with reduced endotoxin levels” (Continuus Materials Intellectual Property, LLC, priority 2020, dated 2023):

Assay: Water-soluble endotoxin in aqueous extract of recovered paper/plastic fragments, L.A.L. kinetic chromogenic method
Settings: Example 13, about 2,000 ppm glutaraldehyde on fragments
Description: Sample #7 from Example 1 was assayed for water-soluble endotoxins. Specifically, a clean, new 500 mL plastic bottle (500 mL capacity) was charged with recovered paper/plastic fragments (20 g, from sample #7 in Example 1) and sterile, cell-culture grade water (200 g). The bottle was immediately capped tightly and agitated in a Gilson shaker for a period of 60 s. The loaded bottle was then conditioned for 1 h at a temperature of 65-70° F. and was then subjected to agitation in the Gilson shaker for a second period of 60 s. The bottle was then opened and a sample of liquor extract (15 mL) was decanted into a sterile sample vial, which was immediately capped and labeled. Collected extract underwent endotoxin analysis using the L.A.L. kinetic chromogenic method.
Recovered paper/plastic sample batches (500 g, as-is basis, #7 sample from Example 1) were loaded into a plastic bin (16.125″×11.25″×6.75″) and were then sprayed with aqueous glutaraldehyde solutions at various target levels. In this process, the loaded bin was weighed initially and was then re-weighed repeatedly during the application of the glutaraldehyde solution until the target application level was achieved. The bin was repeatedly closed and shaken during this process in order to obtain a uniform distribution of the glutaraldehyde on the fragments. […]

With O=CCCCC=O [glutaraldehyde] the “water-soluble endotoxin crosslinked and converted to water-insoluble material” value was “about 99.9%”.
